Measurements taken from US20230391739A1, “ARYL DERIVATIVES FOR TREATING TRPM3 MEDIATED DISORDERS” (Katholieke Universiteit Leuven, priority 2020, published 2023).

Each compound was assayed against T1, mouse TRPM3α2 (mTRPM3) ion channel (Mus musculus, UniProt J9SQF3) (assay: TRPM3 ion channel driven Ca2+ uptake, Fluo-4 AM assay, PS-stimulated (mTRPM3)). Details: TRPM3 overexpressing flip-in HEK293 cells stimulated with Pregnenolone sulfate (PS) 50 μM, activity ranges A, B, C.
T1 construct: expressed in transfected cells; host or cells: flip-in HEK293
T1 sequence (J9SQF3 1-1709 isoform J9SQF3-12): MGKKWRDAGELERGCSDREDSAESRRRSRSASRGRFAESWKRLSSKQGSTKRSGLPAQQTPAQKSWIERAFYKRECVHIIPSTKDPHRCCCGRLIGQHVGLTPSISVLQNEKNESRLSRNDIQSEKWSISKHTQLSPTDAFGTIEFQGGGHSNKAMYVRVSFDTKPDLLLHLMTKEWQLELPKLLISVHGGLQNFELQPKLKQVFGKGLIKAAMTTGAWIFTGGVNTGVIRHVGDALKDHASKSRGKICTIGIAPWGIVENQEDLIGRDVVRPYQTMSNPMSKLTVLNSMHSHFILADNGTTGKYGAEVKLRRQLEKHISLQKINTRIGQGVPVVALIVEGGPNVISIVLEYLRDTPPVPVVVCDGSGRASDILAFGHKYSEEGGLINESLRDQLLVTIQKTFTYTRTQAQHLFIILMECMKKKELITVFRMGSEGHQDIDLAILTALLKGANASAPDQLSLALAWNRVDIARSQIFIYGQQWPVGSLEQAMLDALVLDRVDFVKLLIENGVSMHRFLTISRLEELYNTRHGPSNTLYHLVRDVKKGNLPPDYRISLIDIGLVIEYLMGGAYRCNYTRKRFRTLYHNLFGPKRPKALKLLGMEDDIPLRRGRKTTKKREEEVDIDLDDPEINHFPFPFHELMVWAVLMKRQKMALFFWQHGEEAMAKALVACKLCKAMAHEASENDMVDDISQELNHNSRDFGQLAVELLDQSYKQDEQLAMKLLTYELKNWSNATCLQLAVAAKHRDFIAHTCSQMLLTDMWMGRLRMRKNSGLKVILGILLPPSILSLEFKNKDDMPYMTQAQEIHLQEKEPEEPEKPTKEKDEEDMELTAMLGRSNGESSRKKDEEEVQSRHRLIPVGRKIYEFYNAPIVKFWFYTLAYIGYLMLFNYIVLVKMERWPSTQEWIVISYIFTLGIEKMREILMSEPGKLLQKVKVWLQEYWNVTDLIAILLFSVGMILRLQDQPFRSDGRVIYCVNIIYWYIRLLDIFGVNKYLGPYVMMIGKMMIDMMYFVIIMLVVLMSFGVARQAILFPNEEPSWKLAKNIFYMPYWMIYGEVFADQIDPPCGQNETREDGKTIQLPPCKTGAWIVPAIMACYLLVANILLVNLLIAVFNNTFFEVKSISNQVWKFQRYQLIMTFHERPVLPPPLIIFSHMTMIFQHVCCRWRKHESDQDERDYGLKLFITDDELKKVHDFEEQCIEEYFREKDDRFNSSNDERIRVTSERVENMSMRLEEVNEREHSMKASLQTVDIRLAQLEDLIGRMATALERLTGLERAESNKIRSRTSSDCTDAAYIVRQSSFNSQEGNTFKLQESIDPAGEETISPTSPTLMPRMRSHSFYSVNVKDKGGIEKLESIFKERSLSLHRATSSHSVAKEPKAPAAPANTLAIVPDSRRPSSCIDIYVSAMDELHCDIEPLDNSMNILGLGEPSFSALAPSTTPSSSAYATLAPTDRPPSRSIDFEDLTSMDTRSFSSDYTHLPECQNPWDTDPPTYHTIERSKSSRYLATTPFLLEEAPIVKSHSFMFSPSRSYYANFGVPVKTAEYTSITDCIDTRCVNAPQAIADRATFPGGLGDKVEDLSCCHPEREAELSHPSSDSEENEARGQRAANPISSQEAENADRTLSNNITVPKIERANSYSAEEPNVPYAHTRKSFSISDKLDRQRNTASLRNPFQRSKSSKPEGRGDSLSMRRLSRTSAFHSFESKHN
Type: cell-based
Experimental: Monitoring the TRPM3 Ion Channel Driven Ca^2+ Uptake.
In order to monitor the inhibition of the mouse TRPM3α2 (mTRPM3) ion channel by the compounds of the invention, a cellular system making use of an mTRPM3alpha2 or hTRPM3 overexpressing cell line (flip-in HEK293) was used. The TRPM3 channel was stimulated/opened with Pregnenolone sulfate (PS) (50 μM) which results in Ca^2+ influx.
For mTRPM3, the intracellular Ca^2+ was measured with a Calcium responsive dye, Fluor-4 AM ester (Invitrogen). Cells were cultured until a confluence of 80-90%, washed with Versene (Invitrogen) and detached from the surface by a short incubation with 0.05% Trypsin (Invitrogen). The trypsination process was stopped by the addition of complete cell culture medium (DMEM, glutamax, 10% FCS, NEAA, Pen-Strep). Cells were collected and resuspended in Krebs buffer without Calcium at RT.
Prior the cell seeding (±2000 cells/well into a black, 384 well plate (Greiner)) the diluted compound was added in the assay plate, together with the PS dissolved in Krebs buffer containing Calcium. […] Directly after cell addition the plates were read on an Envision fluorescence reader (Perkin Elmer) by an Excitation of 485 nm and emission at 535 nm.
Channel inhibition was calculated compared to a non-PS stimulated control versus a condition stimulated with PS (50 μM) with vehicle. The ability of the compounds of the invention to inhibit this activity was determined as: Percentage inhibition=[1−((RFU determined for sample with test compound present−RFU determined for sample with positive control inhibitor) divided by (RFU determined in the presence of vehicle−RFU determined for sample with positive control inhibitor))]*100.
The activities of the Example compounds tested are depicted in the table below.
Work on `Cc1oc2ccc(OCc3ccccc3)cc2c1C(=O)NCCN1CCOCC1` [Cpd 165, 5-(benzyloxy)-2-methyl-N-(2-morpholinoethyl)benzofuran-3-carboxamide] yielded an IC50 of 1000 to 20000 nM.
In the case of `Cc1oc2ccc(OCc3cccc(F)c3F)cc2c1C(=O)NC1CNCC1(F)F` (stereo not shown) [Cpd 211, 5-((2,3-difluorobenzyl)oxy)-N-(4,4-difluoropyrrolidin-3-yl)-2-methylbenzofuran-3-carboxamide], the IC50 is reported as less than 1000 nM.
`Cc1oc2ccc(OCc3ccccc3)cc2c1C(=O)NC1CN(C(=O)OC(C)(C)C)CCC1F` (single isomer, unassigned) [Cpd 255-Dia 1, tert-butyl 3-(5-(benzyloxy)-2-methylbenzofuran-3-carboxamido)-4-fluoropiperidine-1-carboxylate] was tested, and the IC50 was less than 1000 nM.
`Cc1oc2ccc(OCc3ccccc3)cc2c1C(=O)NC1CCCNC1=O` (stereo not shown) [Cpd 113, 5-(benzyloxy)-2-methyl-N-(2-oxopiperidin-3-yl)benzofuran-3-carboxamide] gave an IC50 of less than 1000 nM.
In the case of `Cc1oc2ccc(OCc3cccc(OC(F)(F)F)c3)cc2c1C(=O)N[C@H]1CCNC1` [Cpd 223, (S)-2-methyl-N-(pyrrolidin-3-yl)-5-((3-(trifluoromethoxy)benzyl)oxy)benzofuran-3-carboxamide], the IC50 is reported as 1000 to 20000 nM.
`CCN1CCC[C@H]1CNC(=O)c1c(C)oc2ccc(OCc3ccccc3)cc12` [Cpd 152, (S)-5-(benzyloxy)-N-((l-ethylpyrrolidin-2-yl)methyl)-2-methylbenzofuran-3-carboxamide] showed an IC50 of 1000 to 20000 nM.
`Cc1oc2ccc(OCc3ccccc3)cc2c1C(=O)NC1CNCCC1F` (single isomer, unassigned) [Cpd 130-Dia 2] gave an IC50 of less than 1000 nM.
Work on `Cc1oc2ccc(OCc3ccccc3)cc2c1C(=O)N[C@H]1CCN(S(C)(=O)=O)C1` [Cpd 215, (S)-5-(benzyloxy)-2-methyl-N-(1-(methylsulfonyl)pyrrolidin-3-yl)benzofuran-3-carboxamide] yielded an IC50 of less than 1000 nM.
`Cc1oc2ccc(OCc3ccccc3)cc2c1C(=O)NCC1CCCN1` (stereo not shown) [Cpd 078, 5-(benzyloxy)-2-methyl-N-(pyrrolidin-2-ylmethyl)benzofuran-3-carboxamide] showed an IC50 of less than 1000 nM.
`Cc1oc2ccc(OCc3ccccc3)cc2c1C(=O)NCc1ccnn1C` [Cpd 104, 5-(benzyloxy)-2-methyl-N-((1-methyl-1H-pyrazol-5-yl)methyl)benzofuran-3-carboxamide] showed an IC50 of less than 1000 nM.
`Cc1oc2ccc(OCc3ccccc3)cc2c1C(=O)Nc1ccccc1` [Cpd 058, 5-(benzyloxy)-2-methyl-N-phenylbenzofuran-3-carboxamide] showed an IC50 of less than 1000 nM.
In the case of `COC1CCC(NC(=O)c2c(C)oc3ccc(OCc4ccccc4)cc23)CC1` (stereo not shown) [Cpd 159, 5-(benzyloxy)-N-(4-methoxycyclohexyl)-2-methylbenzofuran-3-carboxamide], the IC50 is reported as 1000 to 20000 nM.
`Cc1oc2ccc(OCc3ccccc3)cc2c1C(=O)N[C@H]1CCNC1=O` [Cpd 069, (S)-5-(benzyloxy)-2-methyl-N-(2-oxopyrrolidin-3-yl)benzofuran-3-carboxamide] was tested, and the IC50 was less than 1000 nM.
With `Cc1oc2ccc(OCc3ccccc3F)cc2c1C(=O)NC1CCNC1=O` (stereo not shown) [Cpd 129, 5-((2-fluorobenzyl)oxy)-2-methyl-N-(2-oxopyrrolidin-3-yl)benzofuran-3-carboxamide] the IC50 was less than 1000 nM.
With `Cc1oc2ccc(OC(CO)c3ccccc3F)cc2c1C(=O)N[C@@H](CO)C(N)=O` (single isomer, unassigned) [Cpd 335-Dia 1] the IC50 was less than 1000 nM.
For `Cc1oc2ccc(OCc3ccccc3)cc2c1C(=O)N[C@H]1C[C@H]2CN(C)CCN2C1` [Cpd 205, 5-(benzyloxy)-2-methyl-N-((7S,8aS)-2-methyloctahydropyrrolo[1,2-a]pyrazin-7-yl)benzofuran-3-carboxamide], the IC50 was 1000 to 20000 nM.
`Cc1cccc(COc2ccc3oc(C)c(C(=O)O)c3c2)c1` [Cpd 005, 2-methyl-5-((3-methylbenzyl)oxy)benzofuran-3-carboxylic acid] was tested, and the IC50 was less than 1000 nM.
For `Cc1oc2ccc(OCc3ccccc3)cc2c1C(=O)N[C@H]1C[C@H]2CC[C@@H](C1)N2C` [Cpd 183, 5-(benzyloxy)-2-methyl-N-((1R,3r,5S)-8-methyl-8-azabicyclo[3.2.1]octan-3-yl)benzofuran-3-carboxamide], the IC50 was less than 1000 nM.
`Cc1oc2ccc(OCc3ccccc3)cc2c1C(=O)NC1CC2(CCNCC2)C1` [Cpd 180, 5-(benzyloxy)-2-methyl-N-(7-azaspiro[3.5]nonan-2-yl)benzofuran-3-carboxamide] was tested, and the IC50 was less than 1000 nM.
`Cc1oc2ccc(OCc3ccccc3)cc2c1C(=O)NCC1(N(C)C)CCCC1` [Cpd 187, 5-(benzyloxy)-N-((1-(dimethylamino)cyclopentyl)methyl)-2-methylbenzofuran-3-carboxamide] showed an IC50 of less than 1000 nM.
With `Cc1oc2ccc(OCc3ccccc3)cc2c1C(=O)NC1CC2CCC(C1)N2C` (stereo not shown) [Cpd 181, 5-(benzyloxy)-2-methyl-N-(8-methyl-8-azabicyclo[3.2.1]octan-3-yl)benzofuran-3-carboxamide] the IC50 was less than 1000 nM.
Work on `Cc1oc2ccc(OCc3ccccc3)cc2c1C(=O)NC1CC(C)(C)NC(C)(C)C1` [Cpd 209, 5-(benzyloxy)-2-methyl-N-(2,2,6,6-tetramethylpiperidin-4-yl)benzofuran-3-carboxamide] yielded an IC50 of 1000 to 20000 nM.
`Cc1nc(C)n(CCNC(=O)c2c(C)oc3ccc(OCc4ccccc4)cc23)n1` [Cpd 179, 5-(benzyloxy)-N-(2-(3,5-dimethyl-1H-1,2,4-triazol-1-yl)ethyl)-2-methylbenzofuran-3-carboxamide] was tested, and the IC50 was 1000 to 20000 nM.
`Cc1oc2ccc(OCc3ccccc3)cc2c1C(=O)N[C@H]1CC[C@@H](O)CC1` [Cpd 125, 5-(benzyloxy)-N-(cis-4-hydroxycyclohexyl)-2-methylbenzofuran-3-carboxamide] showed an IC50 of less than 1000 nM.
`Cc1oc2cc(F)c(OCc3ccccc3)cc2c1C(=O)NC1CNCC1(F)F` (single isomer, unassigned) [Cpd 302-En 2, 5-(benzyloxy)-N-(4,4-difluoropyrrolidin-3-yl)-6-fluoro-2-methylbenzofuran-3-carboxamide] showed an IC50 of less than 1000 nM.
`CNC(=O)c1c(C)oc2ccc(OCc3c(F)cccc3Cl)cc12` [Cpd 045, 5-((2-chloro-6-fluorobenzyl)oxy)-N,2-dimethylbenzofuran-3-carboxamide] showed an IC50 of less than 1000 nM.
With `Cc1oc2ccc(OCc3ccccc3S(C)(=O)=O)cc2c1C(=O)NC1CCNCC1(F)F` (single isomer, unassigned) [Cpd 333-En 2, N-(3,3-difluoropiperidin-4-yl)-2-methyl-5-((2-(methylsulfonyl)benzyl)oxy)benzofuran-3-carboxamide] the IC50 was less than 1000 nM.
`COCCCN1CCC(NC(=O)c2c(C)oc3ccc(OCc4ccccc4)cc23)CC1` [Cpd 229, 5-(benzyloxy)-N-(1-(3-methoxypropyl)piperidin-4-yl)-2-methylbenzofuran-3-carboxamide] was tested, and the IC50 was 1000 to 20000 nM.
Compound `Cc1oc2ccc(OCc3ccccc3S(C)(=O)=O)cc2c1C(=O)NC1(CO)CCOCC1` [Cpd 332, N-(4-(hydroxymethyl)tetrahydro-2H-pyran-4-yl)-2-methyl-5-((2-(methylsulfonyl)benzyl)oxy)benzofuran-3-carboxamide] has an IC50 of 1000 to 20000 nM.
For `Cc1oc2ccc(OCc3ccccc3)cc2c1C(=O)NC1CNC(=O)C1` (stereo not shown) [Cpd 068, 5-(benzyloxy)-2-methyl-N-(5-oxopyrrolidin-3-yl)benzofuran-3-carboxamide], the IC50 was 1000 to 20000 nM.
For `Cc1oc2ccc(OCc3ccccc3F)cc2c1C(=O)NC1COCC1(F)F` (single isomer, unassigned) [Cpd 331-En 1], the IC50 was greater than 20000 nM.
